Drawing on patent US12612409B2, “Pyrrolopyrimidines as CFTR potentiators” (Cystic Fibrosis Foundation, priority 2016, dated 2026), this text covers EC50 for 16 molecules.

Test [1] concerns the target T1, CFTR in F508del/F508del primary CF hBE cells (Homo sapiens, UniProt P13569, DEL508-508).
T1 construct: Primary cystic fibrosis human bronchial epithelial (CF hBE) cells were expanded and cultured; endogenous in cells; host or cells: primary CF human bronchial epithelial cells, genotype F508del/F508del
Description: Ussing chamber electrophysiology assay of CFTR potentiation in F508del/F508del CF bronchial epithelial cells (27° C.). The format is cell-based. The source says:
• SHELXTL, Version 5.1, Bruker AXS, 1997. • PLATON, A. L. Spek, J. Appl. Cryst. 2003, 36, 7-13. • MERCURY, C. F. Macrae, P. R. Edington, P. McCabe, E. Pidcock, G. P. Shields, R. Taylor, M. Towler and J. van de Streek, J. Appl. Cryst. 39, 453-457, 2006. • OLEX2, Dolomanov, O. V.; Bourhis, L. J.; Gildea, R. J.; Howard, J. A. K.; Puschmann, H., (2009). J. Appl. Cryst., 42, 339-341. • R. W. W. Hooft et al. J. Appl. Cryst. (2008). 41. 96-103. • H. D. Flack, Acta Cryst. 1983, A39, 867-881. Using Chamber Electrophysiology Assay of CFTR Potentiation in CF Bronchial Epithelial Cells
Primary cystic fibrosis human bronchial epithelial (CF hBE) cells were expanded and cultured according to published methods (Neuberger et al., Ch. 4 of Cystic Fibrosis, Methods in Molecular Biology vol. 741, pp. 39-54 (2011)). Well-differentiated cells (>30 days at air/liquid interface) on Snapwell filters (Corning Costar, cat. no. 3801) were mounted in Ussing chambers (Physiologic Instruments, Inc., San Diego, CA). […] HEPES buffered physiological saline (composition (in mM): 137 NaCl, 4 KCl, 1 MgCl2, 1.8 CaCl2), 10 HEPES Na) was used in both apical and basolateral chambers. Chambers were bubbled with air to promote mixing and the voltage was clamped to zero. Amiloride (30 uM), forskolin (10 uM), test compound (4 increasing concentrations), and CFTRinh-172 (20 uM) were added sequentially with 20-25 minutes between additions. Short-circuit currents were acquired and analyzed using LabScribe2. Test compound responses were scaled relative to responses for DMSO (0%) and the maximal response of a positive control potentiator (100%).

The target in test [2] is T2, recombinant F508del V470 CFTR in Fischer rat thyroid (FRT) cells (Homo sapiens, UniProt P13569, DEL508-508).
T2 construct: expressed in transfected cells
Description: FRT ion flux assay of F508del CFTR potentiation. The format is cell-based. The settings on record: FRT cells expressing F508del V470 CFTR, forskolin 20 uM, 27° C. pre-incubation. The protocol: FRT Ion Flux Assay of F508del CFTR Potentiation
Fischer rat thyroid (FRT) cell lines stably expressing recombinant F508del V470 CFTR and halide-sensitive yellow fluorescent protein (Pedemonte et al., J. Clin. Invest. 115(9) 2564-71 (2005)) were seeded at 25,000 cells/well in 50 uL/well of culture medium into black-walled, clear bottom tissue-culture-treated 384-well plates (Corning, cat. no. 3712). After one day, the cells were pre-incubated at 27° C./5% CO2 for 16-24 hours. The cells were then washed with dPBS and treated with forskolin (20 uM) and test compound for 30 mi by addition of 20 uL of compound dilution buffer (dPBS containing forskolin and test compound). Plates were loaded into FLIPR384 fluorescence imaging plate reader (Molecular Devices). After an initial fluorescence reading, iodide buffer (25 uL) (composition (in mM): 137 NaI, 1.5 K2PO4, 8.1 NaH2PO4, 2.7 KCl, 0.5 MgCl2, 1 CaCl2) was added and a second fluorescence reading was made after approximately 21 seconds. Data treatment involved division of the second fluorescence reading by the initial fluorescence reading, then scaling of the resulting normalized endpoint fluorescence with respect to the responses for DMSO (0%) and a positive control potentiator (100%).

T2 sequence (P13569 with tags, fused parts or gaps DEL508-508): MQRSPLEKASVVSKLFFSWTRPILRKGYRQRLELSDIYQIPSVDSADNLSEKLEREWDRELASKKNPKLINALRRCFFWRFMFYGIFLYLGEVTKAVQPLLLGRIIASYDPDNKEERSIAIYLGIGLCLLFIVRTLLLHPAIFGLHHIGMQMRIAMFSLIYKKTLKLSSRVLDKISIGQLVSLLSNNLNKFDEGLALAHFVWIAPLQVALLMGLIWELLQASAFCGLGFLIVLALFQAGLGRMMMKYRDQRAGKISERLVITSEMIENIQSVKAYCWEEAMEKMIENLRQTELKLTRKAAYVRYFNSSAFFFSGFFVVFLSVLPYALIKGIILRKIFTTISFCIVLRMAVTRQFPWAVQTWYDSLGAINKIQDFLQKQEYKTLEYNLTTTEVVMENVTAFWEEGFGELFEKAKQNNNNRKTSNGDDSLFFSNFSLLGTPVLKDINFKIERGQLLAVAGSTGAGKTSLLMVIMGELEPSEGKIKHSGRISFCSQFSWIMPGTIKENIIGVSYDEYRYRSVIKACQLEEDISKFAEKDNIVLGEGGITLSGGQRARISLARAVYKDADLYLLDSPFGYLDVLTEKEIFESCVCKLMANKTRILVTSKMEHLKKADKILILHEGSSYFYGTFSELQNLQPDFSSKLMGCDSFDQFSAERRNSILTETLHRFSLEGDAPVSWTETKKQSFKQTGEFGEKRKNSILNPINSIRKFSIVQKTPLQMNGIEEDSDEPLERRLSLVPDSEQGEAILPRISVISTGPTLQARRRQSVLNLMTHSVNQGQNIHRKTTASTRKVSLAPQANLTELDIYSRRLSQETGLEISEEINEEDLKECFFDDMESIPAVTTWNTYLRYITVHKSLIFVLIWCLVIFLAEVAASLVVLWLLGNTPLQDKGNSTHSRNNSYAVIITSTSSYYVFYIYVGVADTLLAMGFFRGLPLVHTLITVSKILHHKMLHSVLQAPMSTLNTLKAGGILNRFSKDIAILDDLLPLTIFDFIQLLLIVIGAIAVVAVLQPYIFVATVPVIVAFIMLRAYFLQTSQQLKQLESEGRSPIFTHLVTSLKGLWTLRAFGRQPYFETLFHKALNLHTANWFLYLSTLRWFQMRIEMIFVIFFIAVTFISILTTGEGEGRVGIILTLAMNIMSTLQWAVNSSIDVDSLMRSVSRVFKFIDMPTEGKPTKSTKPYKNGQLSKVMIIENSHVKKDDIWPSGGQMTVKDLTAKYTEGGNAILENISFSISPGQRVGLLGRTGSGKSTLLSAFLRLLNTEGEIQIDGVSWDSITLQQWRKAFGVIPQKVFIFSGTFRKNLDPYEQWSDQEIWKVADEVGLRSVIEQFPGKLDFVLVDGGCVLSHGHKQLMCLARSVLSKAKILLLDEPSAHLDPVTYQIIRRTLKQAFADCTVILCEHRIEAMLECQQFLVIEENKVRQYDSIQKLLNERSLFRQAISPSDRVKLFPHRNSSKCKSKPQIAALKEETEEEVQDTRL
T1 sequence (P13569 with tags, fused parts or gaps DEL508-508): as above

For `CC(c1cnn(-c2ccc(F)cc2F)c1)n1c(C#N)c(-c2cnc(C(F)(F)F)nc2)c2c(N)ncnc21` (single isomer, unassigned) [Example 8, 4-Amino-7-{1-[1-(2,4-difluorophenyl)-1H-pyrazol-4-yl]ethyl}-5-[2-(trifluoromethyl)pyrimidin-5-yl]-7H-pyrrolo[2,3-d] pyrimidine-6-carbonitrile], the EC50 turned out to be 15.5 nM in test [1] and 35.2 nM in test [2].

Turning to `CC(c1cn(-c2ccccc2F)nn1)n1c(C#N)c(-c2cnc(C(F)(F)F)nc2)c2c(N)ncnc21` (single isomer, unassigned) [Example 9, 4-amino-7-{1-[1-(2-fluorophenyl)-1H-1,2,3-triazol-4-yl]ethyl}-5-[2-(trifluoromethyl)pyrimidin-5-yl]-7H-pyrrolo[2,3-d] pyrimidine-6-carbonitrile], the figures for the half-maximal effective concentration (EC50) in test [1] and in test [2] were 20.4 nM and 12.2 nM, respectively.

Take `CC(c1cn(-c2ccccc2F)nn1)n1c(C#N)c(-c2cnc(C(F)(F)F)nc2)c2c(N)ncnc21` (single isomer, unassigned) [Example 10, 4-Amino-7-{1-[1-(2-fluorophenyl)-1H-1,2,3-triazol-4-yl]ethyl}-5-[2-(trifluoromethyl)pyrimidin-5-yl]-7H-pyrrolo[2,3-d]pyrimidine-6-carbonitrile]: the half-maximal effective concentration (EC50) in test [1] came out at 70.3 nM; in test [2], 77.6 nM.

On to `CC(c1cn(-c2ccc(F)cc2F)nn1)n1c(C#N)c(-c2cnc(C(F)(F)F)nc2)c2c(N)ncnc21` (single isomer, unassigned) [Example 11, 4-Amino-7-{1-[1-(2,4-difluorophenyl)-1H-1,2,3-triazol-4-yl]ethyl}-5-[2-(trifluoromethyl)pyrimidin-5-yl]-7H-pyrrolo[2,3-d] pyrimidine-6-carbonitrile], for which the results for the EC50 in test [1] and in test [2] were 33.5 nM and 19.8 nM, respectively.

For the molecule `Cc1c(C(C)n2c(C#N)c(-c3cnc(C(F)(F)F)nc3)c3c(N)ncnc32)nnn1-c1ccccc1F` (single isomer, unassigned) [Example 12, 4-amino-7-(1-(1-(2-fluorophenyl)-5-methyl-1H-1,2,3-triazol-4-yl)ethyl)-5-(2-(trifluoromethyl)pyrimidin-5-yl)-7H-pyrrolo[2,3-d]pyrimidine-6-carbonitrile], the EC50 amounted to 22.5 nM in test [1] and 6.66 nM in test [2].

With `Cc1c(C(C)n2c(C#N)c(-c3cnc(C(F)(F)F)nc3)c3c(N)ncnc32)nnn1-c1ccccc1F` (single isomer, unassigned) [Example 13, 4-amino-7-(1-(1-(2-fluorophenyl)-5-methyl-1H-1,2,3-triazol-4-yl)ethyl)-5-(2-(trifluoromethyl)pyrimidin-5-yl)-7H-pyrrolo[2,3-d] pyrimidine-6-carbonitrile], the 50% effective concentration (EC50) is 267 nM in test [1] and 96.8 nM in test [2].

Take `COc1ncc(-c2c(C#N)n(C(C)c3cc(-c4ccccc4F)no3)c3ncnc(N)c23)cn1` (single isomer, unassigned) [Example 14, 4-amino-7-{1-[3-(2-fluorophenyl)-1,2-oxazol-5-yl]ethyl}-5-(2-methoxypyrimidin-5-yl)-7H-pyrrolo[2,3-d]pyrimidine-6-carbonitrile]: the concentration for a half-maximal effect (EC50) in test [1] was determined as 13 nM; in test [2], 23.6 nM.

Take `COc1ncc(-c2c(C#N)n(C(C)c3cc(-c4ccccc4F)no3)c3ncnc(N)c23)cn1` (single isomer, unassigned) [Example 15, 4-amino-7-{1-[3-(2-fluorophenyl)-1,2-oxazol-5-yl]ethyl}-5-(2-methoxypyrimidin-5-yl)-7H-pyrrolo[2,3-d]pyrimidine-6-carbonitrile]: the EC50 in test [1] turned out to be 7 nM; in test [2], 7.22 nM.

Consider `CCC(c1cn(-c2ccc(F)cc2F)nn1)n1c(C#N)c(-c2cnc(C(F)(F)F)nc2)c2c(N)ncnc21` (single isomer, unassigned) [Example 16, 4-Amino-7-{1-[1-(2,4-difluorophenyl)-1H-1,2,3-triazol-4-yl]propyl}-5-[2-(trifluoromethyl)pyrimidin-5-yl]-7H-pyrrolo[2,3-d] pyrimidin-6-carbonitrile], for which the half-maximal effective concentration (EC50) in test [1] amounted to 9 nM; in test [2] it was 6.39 nM.

For `CCC(c1cn(-c2ccc(F)cc2F)nn1)n1c(C#N)c(-c2cnc(C(F)(F)F)nc2)c2c(N)ncnc21` (single isomer, unassigned) [Example 17, 4-Amino-7-{1-[1-(2,4-difluorophenyl)-1H-1,2,3-triazol-4-yl]propyl}-5-[2-(trifluoromethyl)pyrimidin-5-yl]-7H-pyrrolo[2,3-d] pyrimidin-6-carbonitrile], the concentration for a half-maximal effect (EC50) in test [1] came to 49.5 nM; in test [2] it was 45.3 nM.

On to `CCC(c1cn(-c2cccc(F)c2F)nn1)n1c(C#N)c(-c2cnc(C(F)(F)F)nc2)c2c(N)ncnc21` (single isomer, unassigned) [Example 18, 4-amino-7-{1-[1-(2,3-difluorophenyl)-1H-1,2,3-triazol-4-yl]propyl}-5-[2-(trifluoromethyl)pyrimidin-5-yl]-7H-pyrrolo[2,3-d] pyrimidine-6-carbonitrile], for which the EC50 in test [1] came to 12.5 nM; in test [2], 10.8 nM.

On to `CCC(c1cn(-c2cccc(F)c2F)nn1)n1c(C#N)c(-c2cnc(C(F)(F)F)nc2)c2c(N)ncnc21` (single isomer, unassigned) [Example 19, 4-amino-7-{1-[1-(2,3-difluorophenyl)-1H-1,2,3-triazol-4-yl]propyl}-5-[2-(trifluoromethyl)pyrimidin-5-yl]-7H-pyrrolo[2,3-d] pyrimidine-6-carbonitrile], for which the EC50 in test [1] turned out to be 34.7 nM; in test [2], 69.6 nM.

Regarding `CCC(c1cnn(-c2ccc(F)cc2F)c1)n1c(C#N)c(-c2cnc(C(F)(F)F)nc2)c2c(N)ncnc21` (single isomer, unassigned) [Example 20, 4-Amino-7-{1-[1-(2,4-difluorophenyl)-1H-pyrazol-4-yl]propyl}-5-[2-(trifluoromethyl)pyrimidin-5-yl]-7H-pyrrolo[2,3-d]pyrimidine-6-carbonitrile], the figures for the EC50 in test [1] and in test [2] were 5.48 nM and 14.1 nM, respectively.

Turning to `CCC(c1cnn(-c2ccc(F)cc2F)c1)n1c(C#N)c(-c2cnc(C(F)(F)F)nc2)c2c(N)ncnc21` (single isomer, unassigned) [Example 21, 4-Amino-7-{1-[1-(2,4-difluorophenyl)-1H-pyrazol-4-yl]propyl}-5-[2-(trifluoromethyl)pyrimidin-5-yl]-7H-pyrrolo[2,3-d]pyrimidine-6-carbonitrile], the EC50 in test [1] turned out to be 0.45 nM; in test [2] it was 0.87 nM.

As for `CCC(c1cn(-c2ccccc2F)nn1)n1c(C#N)c(-c2cnc(C(F)(F)F)nc2)c2c(N)ncnc21` (single isomer, unassigned) [Example 22, 4-Amino-7-{1-[1-(2-fluorophenyl)-1H-1,2,3-triazol-4-yl]propyl}-5-[2-(trifluoromethyl)pyrimidin-5-yl]-7H-pyrrolo[2,3-d]pyrimidine-6-carbonitrile], the EC50 in test [1] stood at 6.84 nM; in test [2], 4.05 nM.

Turning to `CCC(c1cn(-c2ccccc2F)nn1)n1c(C#N)c(-c2cnc(C(F)(F)F)nc2)c2c(N)ncnc21` (single isomer, unassigned) [Example 23, 4-Amino-7-{1-[1-(2-fluorophenyl)-1H-1,2,3-triazol-4-yl]propyl}-5-[2-(trifluoromethyl)pyrimidin-5-yl]-7H-pyrrolo[2,3-d]pyrimidine-6-carbonitrile], the EC50 in test [1] was 32.5 nM; in test [2] it was 41.8 nM.
